Non-standard residues stand in square brackets, D forms with d. Residues, ends and D or L forms follow the SMILES beside them. *: point of attachment. Phenylacetyl(2,3,4,5,6-F5) = O=C(Cc1c(F)c(F)c(F)c(F)c1F)*; Phe(F5) = N[C@@H](Cc1c(F)c(F)c(F)c(F)c1F)C(=O)O; Phe(4-Cl) = N[C@@H](Cc1ccc(Cl)cc1)C(=O)O; hArg = N=C(N)NCCCC[C@H](N)C(=O)O; 12Ado = NCCCCCCCCCCCC(=O)O; Nle = CCCC[C@H](N)C(=O)O; Abu = CC[C@H](N)C(=O)O
What was measured:
MX-1 breast cancer cells = assay: In vitro cell viability, MX-1; format: cell-based, human; details: Table 3B; 5 μM for 72 H; MIA-602 = 1
Experimental: (§1) The inhibitory effects of the various synthesized GHRH antagonists were tested in cell proliferation assays in various human cancer cell lines including stomach cancer (KATOIII, N87), colon cancer (HT-29), urothelial cancer (J82, RT4), pancreatic cancer (PANC-1, CFPAC-1), prostatic cancer (PC3), breast cancer (MX-1, HCC1806), ovarian cancer (SK-OV-3, OVCAR-3) and lung cancer (HCC827, H460).
(§2) Cell culture. Human cancer cell lines including pancreatic (PANC-1 and CFPAC-1), lung (HCC827 and H460), stomach (NCI-N87 and KATOIII), urothelial (J82, RT4), prostatic (PC3), breast (MX-1 and HCC 1806), colorectal (HT-29), and ovarian (SK-OV-3 and OVCAR-3) were obtained from the American Type Culture Collection (ATCC) and cultured at 37° C. in a humidified 95% air/5% CO2 atmosphere in the medium recommended by ATCC.
(§3) In vitro cell viability. Cell viability was analyzed as follows: cancer cells including pancreatic (PANC-1 and CFPAC-1), lung (HCC827 and H460), stomach (NCI-N87 and KATOIII), urothelial (J82, RT4), prostatic (PC3) and breast (MX-1 and HCC 1806), colorectal (HT-29) and ovarian (SK-OV-3 and OVCAR-3) were grown on 96 well plates to ˜60% confluence, the cells were starved for 24 h in culture medium containing 0.5% FBS. Cells were then treated with GHRH antagonists MIA602 AVR compounds at concentrations of 1, 2.5 or 5 μM, or vehicle (0.1% DMSO) in quintuplicates for 72 hours. The medium was replaced every 48 hours. Cell viability was measured using CellTiter 96 aqueous one solution kit (Promega). Inhibitory effects of tested AVR compounds in comparison to that of MIA602 are presented as inhibitory potency.
(§4) Inhibitory effects of selected AVR compounds in comparison to that of MIA602 are presented as inhibitory potency (e.g., percentage of inhibition). […] The cell lines tested including lung cancer HCC827 (FIG. 2A), pancreatic cancer CFPAC-1 (FIG. 2B), stomach cancer N87 (FIG. 2C), colon cancer HT-29 (FIG. 2D), breast cancers MX-1 and HCC1806 (FIGS. 2 E, F). Based on the results of cell proliferation assay after cancer cells were treated with antagonist at concentration of 5 μM for 72H, the relative inhibitory potency of AVR antagonists in comparison to MIA-602 is summarized in Table 3 A and B. Over 60 AVR compounds were tested in 12 cancer cell lines.
Based on the results of cell proliferation assay after cancer cells were treated with antagonist at concentration of 5 µM for 72H, * at concentration of 2 µM for 72 H.

[1] = test system: breast cancer HCC-1806 xenograft; assay: Xenograft tumor growth in nude mice, HCC-1806; format: in vivo; details: Table 4K, Breast Ca HCC-1806, 5 weeks, 5 μg/day s.c.; for % Inhibition: vs control
Experimental: The peptides' activity was compared with GHRH antagonist MIA-602. All statistical analyzses were performed from comparing GHRA antagonists to non-treated tumor (control).
Peptides and chemicals. GHRH antagonists MIA-602 and AVR-GHRH antagonists (see Table 2 above) were synthesized by solid phase methods and purified by HPLC. The peptides were dissolved in DMSO and further diluted in 10% 1,2-propanediol. The final concentration of peptides was 50 µg/ml in 10% 1,2-propanediol containing 0.1% of DMSO.
Cell culture. Human cancer cell lines including pancreatic (PANC-1 and CFPAC-1), lung (HCC827 and H460), stomach (NCI-N87), prostate (PC3), brest (MX-1 and HCC-1806), colorectal (HT-29), and ovarian (SK-OV-3 and OVCAR-3) were obtained from the American Type Culture Collection (ATCC) and cultured at 37° C. in a humidified 95% air/5% CO2 atmosphere in the medium recommended by ATCC.
Xenograft models of human cancers in nude mice. Female athymic (NCr nu/nu) nude mice, 5- to 6-weeks-old, obtained from the Envigo labs (Tampa, Fla.), were housed in laminar airflow cabinets under pathogen-free conditions with a 12-h light/12-h dark schedule, and were fed autoclaved standard chow and water. To generate mice with xenografted tumors, tumor xenografts were initiated by subcutaneous (s.c.) injection of 107 human cancer cells into female nude mice. After about 4 weeks the resulting tumors were dissected and collected after removing necrosis tissues. The tumors were then cut into particles with size of 3 mm3 and transplanted s.c. by trocar needle into experimental animals. When tumors grew to the size of 50-60 mm3 (by volume), mice were randomized into groups and treated daily for 4-8 weeks by subcutaneous administration of 5 μg of GHRH antagonists MIA-602 or AVR-compounds (2-10 μg as indicated), or vehicle solutions (0.1% DMSO in 10% 1,2-propanediol) respectively. Tumor sizes were measured weekly.
Statistical analysis. One-way ANOVA followed by Bonferroni comparison were performed. Data are expressed as Mean±SEM. To determine statistical significance between animal groups, two-tailed Student's t-test was conducted. Differences were considered significant when p<0.05.
Results. […] FIG. 1A-N represents in vivo inhibition of tumor growth during the treatment with GHRH antagonist MIA-602 and selected AVR antagonists in nude mice xenografted with various human tumors including pancreatic cancer PANC-1 (FIG. 1A) and CFPAC-1 (FIG. 1I); lung cancer HCC827 (FIGS. 1B, C) and H460 (FIG. 1H); stomach cancer N87 (FIGS. 1D-F); colon cancer HT-29 (FIG. 1G); breast cancer MX-1 and HCC-1806 (FIGS. 1J, K); ovarian cancer SK-OV-3 and OVACAR-3 (FIGS. 1 L, M) and prostate cancer PC3 (FIG. 1N). See also Table 5.

[2] = test system: J82 urothelial cancer cells; assay: In vitro cell viability, J82; format: cell-based, human; details: antagonist 5 μM for 72 h, cell proliferation assay; MIA602 = 1
Experimental: as §1, §2, §3, §4

[3] = test system: PANC-1 pancreatic cancer cells; assay: In vitro cell viability, PANC-1; format: cell-based, human; details: antagonist 5 μM for 72 h, cell proliferation assay; MIA602 = 1
Experimental: as §1, §2, §3, §4

[4] = test system: KATOIII stomach cancer cells; assay: In vitro cell viability, KATOIII; format: cell-based, human; details: antagonist 5 μM for 72 h, cell proliferation assay; MIA602 = 1
Summary of the method: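 Cells grown to ~60% confluence, serum-starved 24 h in 0.5% FBS, then treated with antagonists at 1, 2.5 or 5 μM or vehicle (0.1% DMSO) in quintuplicate for 72 h, medium replaced every 48 h. Viability read by MTS-type CellTiter 96 AQueous One assay; expressed as inhibitory potency relative to MIA602.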

CCCC[C@H](NC(=O)[C@@H](NC(=O)[C@H](CC(=O)O)NC(=O)[C@H](CCC(N)=O)NC(=O)[C@H](CC(C)C)NC(=O)[C@H](CC(C)C)NC(=O)[C@H](CCCCN)NC(=O)[C@H](CCCNC(=N)N)NC(=O)[C@H](C)NC(=O)[C@H](CO)NC(=O)[C@H](CC(C)C)NC(=O)[C@H](CCC(N)=O)NC(=O)[C@H](CC)NC(=O)[C@H](CC(C)C)NC(=O)[C@@H](NC(=O)[C@H](CCCCN)NC(=O)[C@H](CCCNC(=N)N)NC(=O)[C@H](Cc1c(F)c(F)c(F)c(F)c1F)NC(=O)[C@H](CCCCNC(=N)N)NC(=O)[C@H](C)NC(=O)[C@@H](NC(=O)[C@H](Cc1ccc(Cl)cc1)NC(=O)[C@@H](NC(=O)[C@H](C)NC(=O)[C@H](CC(=O)O)NC(=O)[C@@H](CCCNC(=N)N)NC(=O)[C@H](Cc1ccc(O)cc1)NC(=O)CCCCCCCCCCCNC(=O)Cc1c(F)c(F)c(F)c(F)c1F)[C@@H](C)CC)[C@@H](C)O)C(C)C)[C@@H](C)CC)C(=O)N[C@H](CCCNC(=N)N)C(=O)N[C@@H](CCCCNC(=N)N)C(=O)NCCCCCCCCCCCC(N)=O [AVR-353, 5FPhAC-Ada-Tyr-DArg-Asp-Ala-Ile-Cpa-Thr-Ala-Har-5FPhe-Arg-Lys-Val-Leu-Abu-Gln-Leu-Ser-Ala-Arg-Lys-Leu-Leu-Gln-Asp-Ile-Nle-DArg-Har-Ada-NH2] ({Phenylacetyl(2,3,4,5,6-F5)-12Ado}-Y[dR]DAI[Phe(4-Cl)]TA[hArg][Phe(F5)]RKVL[Abu]QLSARKLLQDI[Nle][dR][hArg][12Ado]-NH2)
In vitro relative inhibitory potency in comparison to MIA-602, MX-1 (MX-1 breast cancer cells): 2.001

CCCC[C@H](NC(=O)[C@@H](NC(=O)[C@H](CC(=O)O)NC(=O)[C@H](CCC(N)=O)NC(=O)[C@H](CC(C)C)NC(=O)[C@H](CC(C)C)NC(=O)[C@H](CCCCN)NC(=O)[C@H](CCCNC(=N)N)NC(=O)[C@H](C)NC(=O)[C@H](CO)NC(=O)[C@H](CC(C)C)NC(=O)[C@H](CCC(N)=O)NC(=O)[C@H](CC)NC(=O)[C@H](CC(C)C)NC(=O)[C@@H](NC(=O)[C@H](CCCCN)NC(=O)[C@H](CCCNC(=N)N)NC(=O)[C@H](Cc1c(F)c(F)c(F)c(F)c1F)NC(=O)[C@H](CCCCNC(=N)N)NC(=O)[C@H](C)NC(=O)[C@@H](NC(=O)[C@H](Cc1ccc(Cl)cc1)NC(=O)[C@@H](NC(=O)[C@H](C)NC(=O)[C@H](CC(=O)O)NC(=O)[C@@H](CCCNC(=N)N)NC(=O)[C@H](Cc1ccc(O)cc1)NC(=O)CCCCCCCCCCCNC(=O)Cc1c(F)c(F)c(F)c(F)c1F)[C@@H](C)CC)[C@@H](C)O)C(C)C)[C@@H](C)CC)C(=O)N[C@H](CCCNC(=N)N)C(=O)N[C@@H](CCCCNC(=N)N)C(=O)NCCCCCCCCCCCC(=O)NC [AVR-354] ({Phenylacetyl(2,3,4,5,6-F5)-12Ado}-Y[dR]DAI[Phe(4-Cl)]TA[hArg][Phe(F5)]RKVL[Abu]QLSARKLLQDI[Nle][dR][hArg][12Ado]-NHMe)
Tumor Growth % [1]: 680.2% | % Inhibition [1]: 43.1% | In vitro relative inhibitory potency in comparison to MIA-602, MX-1 (MX-1 breast cancer cells): 1.594

CCCC[C@H](NC(=O)[C@@H](NC(=O)[C@H](CC(=O)O)NC(=O)[C@H](CCC(N)=O)NC(=O)[C@H](CC(C)C)NC(=O)[C@H](CC(C)C)NC(=O)[C@H](CCCCN)NC(=O)[C@H](CCCNC(=N)N)NC(=O)[C@H](C)NC(=O)[C@H](CO)NC(=O)[C@H](CC(C)C)NC(=O)[C@H](CCC(N)=O)NC(=O)[C@H](CC)NC(=O)[C@H](CC(C)C)NC(=O)[C@@H](NC(=O)[C@H](CCCCN)NC(=O)[C@H](CCCNC(=N)N)NC(=O)[C@H](Cc1ccc(OC)cc1)NC(=O)[C@H](CCCCNC(=N)N)NC(=O)[C@H](C)NC(=O)[C@@H](NC(=O)[C@H](Cc1c(F)c(F)c(F)c(F)c1F)NC(=O)[C@@H](NC(=O)[C@H](C)NC(=O)[C@H](CC(=O)O)NC(=O)[C@@H](CCCNC(=N)N)NC(=O)[C@H](Cc1ccc(O)cc1)NC(=O)CCCCCCCCCCCNC(=O)Cc1c(F)c(F)c(F)c(F)c1F)[C@@H](C)CC)[C@@H](C)O)C(C)C)[C@@H](C)CC)C(=O)N[C@H](CCCNC(=N)N)C(=O)N[C@@H](CCCCNC(=N)N)C(=O)NCCCCCCCCCCCC(N)=O [AVR-352, 5FPhAC-Ada-Tyr-DArg-Asp-Ala-Ile-5FPhe-Thr-Ala-Har-Tyr(Me)-Arg-Lys-Val-Leu-Abu-Gln-Leu-Ser-Ala-Arg-Lys-Leu-Leu-Gln-Asp-Ile-Nle-DArg-Har-Ada-NH2] ({Phenylacetyl(2,3,4,5,6-F5)-12Ado}-Y[dR]DAI[Phe(F5)]TA[hArg]Y(Me)RKVL[Abu]QLSARKLLQDI[Nle][dR][hArg][12Ado]-NH2)
Tumor Growth % [1]: 522.7% | % Inhibition [1]: 56.2% | In vitro relative inhibitory potency in comparison to MIA-602, MX-1 (MX-1 breast cancer cells): 2.793

CCCC[C@H](NC(=O)[C@@H](NC(=O)[C@H](CC(=O)O)NC(=O)[C@H](CCC(N)=O)NC(=O)[C@H](CC(C)C)NC(=O)[C@H](CC(C)C)NC(=O)[C@H](CCCCN)NC(=O)[C@H](CCCNC(=N)N)NC(=O)[C@H](C)NC(=O)[C@H](CO)NC(=O)[C@H](CC(C)C)NC(=O)[C@H](CCC(N)=O)NC(=O)[C@H](CC)NC(=O)[C@H](CC(C)C)NC(=O)[C@@H](NC(=O)[C@H](CCCCN)NC(=O)[C@H](CCCNC(=N)N)NC(=O)[C@H](Cc1ccc(OC)cc1)NC(=O)[C@H](CCCCNC(=N)N)NC(=O)[C@H](C)NC(=O)[C@@H](NC(=O)[C@H](Cc1c(F)c(F)c(F)c(F)c1F)NC(=O)[C@@H](NC(=O)[C@H](C)NC(=O)[C@H](CC(=O)O)NC(=O)[C@@H](CCCNC(=N)N)NC(=O)[C@H](Cc1ccc(O)cc1)NC(=O)CCCCCCCCCCCNC(=O)Cc1c(F)c(F)c(F)c(F)c1F)[C@@H](C)CC)[C@@H](C)O)C(C)C)[C@@H](C)CC)C(=O)N[C@H](CCCNC(=N)N)C(=O)N[C@@H](CCCCNC(=N)N)C(=O)NC [AVR-235] ({Phenylacetyl(2,3,4,5,6-F5)-12Ado}-Y[dR]DAI[Phe(F5)]TA[hArg]Y(Me)RKVL[Abu]QLSARKLLQDI[Nle][dR][hArg]-NHMe)
relative inhibitory potency in comparison to MIA-602, Urothelial J82 [2]: 1.518 | relative inhibitory potency in comparison to MIA-602, Pancreatic Panc-1 [3]: 1.139 | relative inhibitory potency in comparison to MIA-602, Stomach KATOIII [4]: 1.220
